Measurements taken from US6737425B1, “N,N-substituted cyclic amine derivatives” (Eisai Co., Ltd., priority 1998, dated 2004).

Tested on: mice in a formalin test
Assay: Antalgic effect (II) on mice in a formalin test (comparison with morphine and indomethacin)
Type: in vivo
Conditions: for average left hind leg-licking time, Mean: formalin 5 minutes later
Experimental: Antalgic Effect (II) on Mice in a Formalin Test
The typical example of the compound of the present invention (the compound in Example 1) was compared with morphine and indomethacin in the same manner as in Pharmacological Experimental Example 5 above.
20.4 mg of the compound of the present invention was weighed, and 10.2 ml of 5.28% mannitol was added thereto to prepare 2 mg/ml (20 mg/kg) solution. Then, 3.8 ml of 5.28% mannitol was added to 3.8 ml of the 2 mg/ml solution to prepare 1 mg/ml (10 mg/kg) solution. Finally, 2.5 ml of 5.28% mannitol was added to 2.5 ml of the 1 mg/ml solution to prepare 0.5 mg/ml (5 mg/kg) solution. The test compound was weighed and prepared on the day when the experiment was conducted.
b-1) Morphine 17.0 mg of morphine purchased as a reagent was weighed, and 5.67 ml physiological saline was added thereto to form 3 mg/ml (30 mg/kg) solution. Then, 2.6 ml physiological saline was added to 1.3 ml of the 3 mg/ml solution to prepare 1 mg/ml (10 mg/kg) solution. Finally, 2.1 ml physiological saline was added to 0.9 ml of the 1 mg/ml solution to prepare 0.3 mg/ml (3 mg/kg) solution. The test compound was weighed and prepared on the day when the experiment was conducted.
12.9 mg of indomethacin purchased as a reagent was weighed, and 12.9 ml of 0.5% methyl cellulose (MC) was added thereto to form 1 mg/ml (10 mg/kg) suspension. Then, 2.24 ml of 0.5% MC was added to 0.96 ml of the 1 mg/ml suspension to prepare 0.3 mg/ml (3 mg/kg) suspension. Finally, 1.6 ml of 0.5% MC was added to 0.8 ml of the 0.3 mg/ml suspension to prepare 0.1 mg/ml (1 mg/kg) suspension. The test compound was weighed and prepared on the day when the experiment was conducted.
The treatment group by the compound of the present invention consisted of 4 groups in total, that is, a control group, a 5 mg/kg compound administration group, a 10 mg/kg compound administration group, and a 20 mg/kg compound administration group, and each group consisted of 5 animals.
The control group was given 0.1 ml of 5.28% mannitol per 10 g of the body weight via the tail vein. The compound of the present invention was administered via the tail vein at each concentration (0.5 mg/ml, 1 mg/ml, and 2 mg/ml) in an volume of 0.1 ml per 10 g of the body weight into the 5 mg/kg group, 10 mg/kg group and 20 mg/kg group, respectively.
The treatment group by morphine consisted of 4 groups in total, that is, a control group, a 3 mg/kg morphine administration group, a 10 mg/kg morphine administration group, and a 30 mg/kg morphine administration group, and each group consisted of 5 animals.
The control group was orally given 0.1 ml of physiological saline per 10 g of the body weight. Morphine was orally administered at each concentration (0.3 mg/ml, 1 mg/ml, and 3 mg/ml) in a volume of 0.1 ml per 10 g of the body weight into the 3 mg/kg group, 10 mg/kg group and 30 mg/kg group, respectively.
The treatment group by indomethacin consisted of 4 groups in total, that is, a control group, a 1 mg/kg indomethacin administration group, a 3 mg/kg indomethacin administration group, and a 10 mg/kg indomethacin administration group, and each group consisted of 5 animals.
The control group was orally given 0.1 ml of 0.5% MC per 10 g of the body weight. Indomethacin was orally administered at each concentration (0.1 mg/ml, […], and 1 mg/ml) in a volume of 0.1 ml per 10 g of the body weight into the 1 mg/kg group, 3 mg/kg group and 10 mg/kg group, respectively.
5.28% mannitol was administered via the tail vein into each group given the compound of the present invention or into the control group, and the animals were placed in a transparent plastic observation cage. 5 minutes later, 20 μl of 3% formalin was subcutaneously administered into the bottom of the left hind leg of each mouse. The duration of the behavior of mouse's licking the left hind leg after administration of formalin was measured for 5 minutes and used as an indication of pain. The duration was expressed in second. […]

CC(C)C(C#N)(CCCN1CCN(CCOc2ccc(F)cc2)CC1)c1ccccc1 (stereo not shown) [Example 1, 1-[(4-Cyano-5-methyl-4-phenyl)hexyl]-4-[2-(4-fluorophenoxy)ethyl]piperazine]
average left hind leg-licking time, Mean (5 mg/kg i.v. (tail vein)): 49.4 s | average left hind leg-licking time, Mean (10 mg/kg i.v. (tail vein)): 23.6 s | average left hind leg-licking time, Mean (20 mg/kg i.v. (tail vein)): 2.2 s | antalgic effect in the formalin test (overall conclusion of the comparison): excellent effect similar to that of morphine
